Relative viability data for one cell line are collected here from the supplement of paper PMC10307832.

What all share (assay): relative viability (nuclei count vs DMSO), 5 days (fraction); higher = more cells survive
Compound in the experiment “FG-4592 + Trametinib”: Cc1nc(C(=O)NCC(=O)O)c(O)c2ccc(Oc3ccccc3)cc12 [FG-4592] + CC(=O)Nc1cccc(-n2c(=O)n(C3CC3)c(=O)c3c(Nc4ccc(I)cc4F)n(C)c(=O)c(C)c32)c1 [Trametinib] (partner 0.02 µM)
In a few lines:
(§1)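 Lung cancer cell lines in 1536-well plates got either a single drug or a fixed anchor-drug dose together with five library-drug doses (not always all listed) in √10 steps, by pin tool, on the day after seeding. Nuclei were counted after 5 days, and relative viability is the treated-to-vehicle ratio of nuclei counts. Values are medians of duplicate plates.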

Compound in the experiment “FG-4592 + Phenformin”: Cc1nc(C(=O)NCC(=O)O)c(O)c2ccc(Oc3ccccc3)cc12 [FG-4592] + N=C(N)NC(=N)NCCc1ccccc1 [Phenformin] (partner 250 µM)
In a few lines:
as §1

Compound in the experiment “IU1-47 + Linsitinib”: CC1=CC(=C(N1C2=CC=C(C=C2)Cl)C)C(=O)CN3CCCCC3 [IU1-47] + C[C@]1(O)C[C@@H](c2nc(-c3ccc4ccc(-c5ccccc5)nc4c3)c3c(N)nccn32)C1 [Linsitinib] (partner 1 µM)
In a few lines: as §1

Compound in the experiment “IU1-47 + Olaparib”: CC1=CC(=C(N1C2=CC=C(C=C2)Cl)C)C(=O)CN3CCCCC3 [IU1-47] + O=C(c1cc(Cc2n[nH]c(=O)c3ccccc23)ccc1F)N1CCN(C(=O)C2CC2)CC1 [Olaparib] (partner 8 µM)
In a few lines: as §1

In the case of UMC-11, the relative viability with FG-4592 + Trametinib (first compound 0.08 µM) amounted to 0.626; with FG-4592 + Trametinib (first compound 0.253 µM), 0.697; with FG-4592 + Trametinib (first compound 0.8 µM), 0.504; with FG-4592 + Trametinib (first compound 2.53 µM) it was 0.528; in the experiment with FG-4592 + Trametinib (first compound 8 µM), 0.452; with FG-4592 + Phenformin (first compound 0.08 µM), 0.323. Further, the relative viability in the experiment with FG-4592 + Phenformin (first compound 0.253 µM) amounted to 0.291; with FG-4592 + Phenformin (first compound 0.8 µM), 0.322; in the experiment with FG-4592 + Phenformin (first compound 2.53 µM), 0.314; with FG-4592 + Phenformin (first compound 8 µM) it was 0.395; in the experiment with IU1-47 + Linsitinib (first compound 0.08 µM), 0.996; in the experiment with IU1-47 + Linsitinib (first compound 0.253 µM), 0.978. The relative viability was determined as 1.12 in the experiment with IU1-47 + Linsitinib (first compound 0.8 µM); 1.07 in the experiment with IU1-47 + Linsitinib (first compound 2.53 µM); 0.952 with IU1-47 + Linsitinib (first compound 8 µM); 0.402 with IU1-47 + Olaparib (first compound 0.08 µM); 0.429 in the experiment with IU1-47 + Olaparib (first compound 0.253 µM); 0.368 with IU1-47 + Olaparib (first compound 0.8 µM). The relative viability with IU1-47 + Olaparib (first compound 2.53 µM) was found to be 0.328; with IU1-47 + Olaparib (first compound 8 µM), 0.373.
